Assay results: patent US20250101486A1, “METHOD AND COMPOSITION FOR STABILISING NICOTINAMIDE ADENINE DINUCLEOTIDE” (ORIENTAL YEAST CO., LTD., priority 2022, published 2025)

Key:
[1] = Stability test of NAD (recovery test of NAD added to human pooled serum); assay type: in vitro ADME
Procedure: NAD was added to 2250 μL of human pooled serum to make 50 μmol/L and incubated at refrigeration, 25° C. and 37° C. The NAD concentrations in serum were measured at 1, 2, and 19 hours after the start of incubation.
The NAD concentration of the sample (i.e., serum) was measured by the following procedure,
(§1) Three times the volume of 0.4 M trichloroacetic acid solution was added to the collected sample, mixed, and placed for 10 minutes under a static condition at room temperature. The mixture was then centrifuged, and the supernatant was collected as an NAD extract.
(§2) NAD in the extract was measured using a 7180 type Hitachi automatic analyzer (manufactured by Hitachi High-Tech Corporation). The measurement was performed by setting the first test solution (comprising a phosphate buffer (pH 7.0), 0.6 mM WST-8 and 1.7 U/mL glucose dehydrogenase (GLUCDH “Amano” 2 manufactured by Amano Enzyme Inc.) and the second test solution (comprising a phosphate buffer (pH 7.8), 320 mM D-glucose and 15 U/mL diaphorase (No. 46445003 manufactured by Oriental Yeast Co., Ltd.) using the measurement parameters as follows. • Analysis method . . . Rate A • Measurement wavelength (sub/main) . . . 600 nm/450 nm • Reaction duration . . . 10 minutes • Photometric points 27 to 34 • Sample solution (NAD extract solution) . . . 2 μL • R1 reagent . . . 120 μL • R2 reagent . . . 40 μL
(§3) That is, 2 AL of NAD extract and 120 μL of the first test solution were mixed and incubated at 37° C. for 4.5 min (photometric point 1 to 16), and 40 μL of the second test solution was added to start the reaction (photometric point 17). The value of an absorbance change per minute (ΔAbs/min) was calculated by subtracting an absorbance of water (blank) at the same photometric point from the absorbance value of the measured sample at 8 to 10 minutes (photometric point 27 to 34) after the start of reaction.
(§4) The NAD concentration of the sample was calculated from the calibration curve (the NAD concentration−the increase rate of absorbance (ΔAbs/min)) that was obtained beforehand by measuring multiple NAD solutions at predetermined concentrations.
FIG. 1 is a graph illustrating a time-course change of relative values (%) of the NAD concentration in serum under each incubation condition when the concentration at the time of NAD addition (0 hour) is set as 100%. When stored at 25° C. and 37° C., the NAD concentrations reached almost 0% within two hours.

[2] = after collection, suspended in a buffer solution for extraction, cooled in ice; cited from earlier work
[3] = Stabilizing study of NAD in blood using NMN and NR; conditions: rat whole blood, overnight at 25° C.
Procedure: Whole blood was collected from SD retired rats using EDTA-filled blood collection tubes. PBS (pH 6.0) comprising NMN and NR at 10 times the concentration shown in Table 3 was prepared as a 10× stabilizer for each. 450 μL of whole blood was transferred to a 1.5-mL centrifuge tube, and 50 μL of 10× stabilizer for each was added and mixed. NAD was added to each tube to make 100 µM and used as a measurement sample.
The NAD extraction and the NAD measurement were performed on each measurement sample after being placed overnight under a static condition overnight at 25° C., in the same manner according to Example 1. The relative value (%) of NAD concentration of each measured sample was calculated, wherein the concentration at the time of NAD addition (0 hour) was set as 100%.

[4] = Stabilizing study of NAD in blood using nicotinamide and NR; conditions: rat whole blood, overnight at 25° C.
Procedure: as §1, §2, §3, §4
(§5) Whole blood was collected from SD retired rats using EDTA-filled blood collection tubes, PBS (pH 6.0) comprising nicotinamide and NR at 10 times the concentration shown in Table 2 was prepared as a 10× stabilizer for each. 450 μL of whole blood was transferred to a 1.5-mL centrifuge tube, and 50 μL of a 10× stabilizer for each was added and mixed. NAD was added to each tube to make 100 µM and used as a measurement sample.
(§6) The NAD extraction and the NAD measurement were performed on each measurement sample after being placed overnight under a static condition at 25° C., in the same manner according to Example 1. The relative value (%) of NAD concentration of each measured sample was calculated, wherein the concentration at the time of NAD addition (0 hour) was set as 100%. […] It was confirmed that the amount of remaining NAD became higher as the amount of nicotinamide and NR increased.

[5] = Stabilizing study of NAD in blood using nicotinamide and NMN; conditions: rat whole blood, overnight at 25° C.
Procedure: as §1, §2, §3, §4
as §5, with “tubes.” for “tubes,”, “NMN” for “NR”, “1” for “2”
as §6, with “NMN” for “NR”

Compound: NC(=O)c1ccc[n+]([C@@H]2O[C@H](COP(=O)([O-])OP(=O)(O)OC[C@H]3O[C@@H](n4cnc5c(N)ncnc54)[C@H](O)[C@@H]3O)[C@@H](O)[C@H]2O)c1 [NAD, nicotinamide adenine dinucleotide]
- relative value (%) of NAD concentration in serum (0 hour = 100%) ([1]; stored at 25° C., within two hours): ~0%
- relative value (%) of NAD concentration in serum (0 hour = 100%) ([1]; stored at 37° C., within two hours): ~0%
- relative value (%) of NAD concentration in serum (0 hour = 100%) ([1]; stored at refrigeration, within 20 hours): ~0%
- NAD concentration in serum relative to 0 hour ([1]; stored at refrigeration, within two hours): reduced by about half
- time for which a blood sample for NAD measurement is stable [2]: 5 h

Compound: NC(=O)c1ccc[n+]([C@@H]2O[C@H](CO)[C@@H](O)[C@H]2O)c1 [NR, nicotinamide riboside]
- relative value (%) of NAD concentration (0 hour = 100%) ([3]; 20 mM NR, 0 mM NMN): 62.9%
- relative value (%) of NAD concentration (0 hour = 100%) ([3]; 50 mM NR, 0 mM NMN): 71.2%
- relative value (%) of NAD concentration (0 hour = 100%) ([3]; 100 mM NR, 0 mM NMN): 77.7%
- relative value (%) of NAD concentration (0 hour = 100%) ([4]; 0 mM nicotinamide, 3 mM NR): 7.5%
- relative value (%) of NAD concentration (0 hour = 100%) ([4]; 0 mM nicotinamide, 10 mM NR): 49.7%
- relative value (%) of NAD concentration (0 hour = 100%) ([4]; 0 mM nicotinamide, 20 mM NR): 64.8%

Compound: NC(=O)c1cccnc1 [Nicotinamide, nicotinamide]
- relative value (%) of NAD concentration (0 hour = 100%) ([4]; 50 mM nicotinamide, 0 mM NR): 7.8%
- relative value (%) of NAD concentration (0 hour = 100%) ([4]; 100 mM nicotinamide, 0 mM NR): 8.7%
- relative value (%) of NAD concentration (0 hour = 100%) ([4]; 200 mM nicotinamide, 0 mM NR): 10.8%
- relative value (%) of NAD concentration (0 hour = 100%) ([5]; 50 mM nicotinamide, 0 mM NMN): 7.4%
- relative value (%) of NAD concentration (0 hour = 100%) ([5]; 100 mM nicotinamide, 0 mM NMN): 6.6%
- relative value (%) of NAD concentration (0 hour = 100%) ([5]; 200 mM nicotinamide, 0 mM NMN): 13.7%

Compound: nicotinamide mononucleotide [NMN]
- relative value (%) of NAD concentration (0 hour = 100%) ([3]; 0 mM NR, 20 mM NMN): 29.1%
- relative value (%) of NAD concentration (0 hour = 100%) ([3]; 0 mM NR, 50 mM NMN): 58.0%
- relative value (%) of NAD concentration (0 hour = 100%) ([3]; 0 mM NR, 100 mM NMN): 89.6%
- relative value (%) of NAD concentration (0 hour = 100%) ([5]; 0 mM nicotinamide, 3 mM NMN): 8.2%
- relative value (%) of NAD concentration (0 hour = 100%) ([5]; 0 mM nicotinamide, 10 mM NMN): 16.1%
- relative value (%) of NAD concentration (0 hour = 100%) ([5]; 0 mM nicotinamide, 20 mM NMN): 33.0%
